Test results: publication PMC4116177, “Rational Modification of Estrogen Receptor by Combination of Computational and Experimental Analysis” (PLoS ONE, 2014)
Substitutions are numbered along the chain they refer to.

Tests used:
wt-ERα ^LBD = target: T1, wt-ERα ^LBD (Homo sapiens, UniProt P03372); assay: PolarScreen competitive binding assay (fluorescence polarization) with wt-ERα LBD
T1 construct: The polypeptide fragment 303-547 of the human ERα has been thus cloned; made in house; host or cells: E. coli Rosetta 2(DE3)pLysS
T1 sequence (P03372 303-547): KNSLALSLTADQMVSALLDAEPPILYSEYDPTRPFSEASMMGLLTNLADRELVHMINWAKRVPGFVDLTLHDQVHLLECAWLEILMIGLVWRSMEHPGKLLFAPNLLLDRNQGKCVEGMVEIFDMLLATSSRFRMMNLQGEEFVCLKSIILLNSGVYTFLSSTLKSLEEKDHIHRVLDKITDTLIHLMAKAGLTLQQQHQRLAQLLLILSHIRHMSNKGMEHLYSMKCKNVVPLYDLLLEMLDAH
Method: (§1) The PolarScreen assay was used to test the ligand binding affinity of wt-ERα ^LBD and its mutants towards different classes of estrogen disrupting compounds.
(§2) Each compound was tested in a range of 12 concentrations with the ER receptors (Figure 5). The compounds concentrations (X axis) were plotted in a logarithmic scale against the Polarization values (Y axis). The plot of compounds concentrations against Polarization were fitted with a one site competition […] logistic curve (see Materials and Methods for further details).
(§3) To test the binding affinity of the recombinant receptor for EDCs we used the competitive binding assay developed by Life Technologies for ERα, the PolarScreen Estrogen Receptor-α Competitor Green Assay.
(§4) The full length ERα provided with the kit was replaced by our recombinant ERα ^LBD. […] This complex is then mixed and incubated at 25°C for 2 h with the individual EDCs and the intensity of the fluorescence polarization signal (directly proportional to the amount of Fluormone bound to the protein) measured. The addition of competitors displaces the Fluormone from the ERα ^LBD receptor, resulting in a decreased fluorescence signal. The fluorescence polarization anisotropy signal (P) is read using an Infinite 200 Pro multimode plate reader from Tecan and calculated with the following equation: [drawing 1] […]

M421F-ERα ^LBD = target: T2, M421F-ERα ^LBD (Homo sapiens, UniProt P03372, M421F); assay: PolarScreen competitive binding assay (fluorescence polarization) with M421F mutant
T2 construct: The polypeptide fragment 303-547 of the human ERα has been thus cloned; made in house; host or cells: E. coli Rosetta 2(DE3)pLysS
T2 sequence (P03372 303-547 M421F): T1 sequence (P03372 303-547) with M119F
Method: as §1, §2, §3
The full length ERα provided with the kit was replaced by our recombinant ERα ^LBD. In short, wt or mutant ERα ^LBD are added to the Fluormone and incubated at 4°C for 45 minutes to form the receptor-Fluormone complex. This complex is then mixed and incubated at 25°C for 2 h with the individual EDCs and the intensity of the fluorescence polarization signal (directly proportional to the amount of Fluormone bound to the protein) measured. The addition of competitors displaces the Fluormone from the ERα ^LBD receptor, resulting in a decreased fluorescence signal. The fluorescence polarization anisotropy signal (P) is read using an Infinite 200 Pro multimode plate reader from Tecan and calculated with the following equation: [drawing 1]
The P data (y) were fitted against the competitor concentrations (x) with a typical one site competition three parameters logistic curve: [drawing 2]
LogIC50 = Log of the concentration of test compound required to reduce the maximum polarization value by 50%. All the resulting IC50 values are obtained by the average of at least four different experiments.

M421I-ERα ^LBD = target: T3, M421I-ERα ^LBD (Homo sapiens, UniProt P03372, M421I); assay: PolarScreen competitive binding assay (fluorescence polarization) with M421I mutant
T3 construct: The polypeptide fragment 303-547 of the human ERα has been thus cloned; made in house; host or cells: E. coli Rosetta 2(DE3)pLysS
T3 sequence (P03372 303-547 M421I): T1 sequence (P03372 303-547) with M119I
Method: as §1, §2, §3, §4

[1] = Thermal unfolding followed by CD spectroscopy at 222 nm; type: physicochemical
Method: The thermal stability of the different ERs was assessed by following the protein thermal unfolding between 25 and 90°C with CD spectroscopy (Figures 3D, 3E and 3F). The unfolding process is not reversible: by cooling back the samples to 25°C only around 50% of the original secondary structure of the protein is recovered (data not shown). By fitting the experimental data with a Boltzmann-type equation it was possible to calculate melting temperature (Tm) values of 59.5±1.5°C, 65.8±1.4°C, and 61.5±1.3°C for the wt-ERα ^LBD, M421F-ERα ^LBD, and M421I-ERα ^LBD proteins, respectively.
Circular dichroism spectra were recorded with a J750 Circular dichroism spectrometer from Jasco interfaced with a Peltier temperature control unit with 1 mm path length cuvette. Analysis of the far-UV region (185–260 nm) was used to investigate the secondary structure and the folding of the protein. CD spectra were analyzed with the DichroWeb online software, by means of the CDSSTR program. Thermal denaturation experiments were performed by monitoring the circular dichroism at 222 nm while changing the temperature from 25 to 90°C (1°C/min) and backward. Reference spectra were collected for the buffers in which proteins were dissolved. Denaturation curves were analyzed assuming a two-state unfolding model and melting temperature (Tm) was calculated for every mutant. […]

CCCCCCCCCc1ccc(O)cc1 [4-Nonylphenol]
IC50 (wt-ERα ^LBD): 8 ± 1 µM | IC50 (M421F-ERα ^LBD): 4 ± 2 µM | IC50 of M421F-ERα ^LBD compared to wt-ERα ^LBD (in words) (M421F-ERα ^LBD; M421F versus wt): twice as strong | IC50 (M421I-ERα ^LBD): 60 ± 30 µM

CC(C)(c1ccc(O)cc1)c1ccc(O)cc1 [Bisphenol-A]
binds more strongly to M421F-ERα ^LBD than to wt-ERα ^LBD (M421F-ERα ^LBD; from IC50 values, M421F versus wt): approximately 6 times

B1: wt-ERα ^LBD: recombinant His6-tagged polypeptide fragment 303-547 (ligand binding domain) of human ERα, wild type (protein, UniProt P03372 303-547, looked up, fragment)
chain: T1 sequence (P03372 303-547)
modifications: ligand binding domain His6 tag
melting temperature (Tm) ([1]; CD at 222 nm, 25 to 90°C, Boltzmann-type fit): 59.5±1.5 °C | melting temperature higher than that previously reported for the full-length ERα protein ([1]; versus full-length ERα): about 20 °C
